How the values were obtained:
Plasmodium falciparum [1] = assay: Growth inhibition of chloroquine-resistant Plasmodium falciparum KI; format: functional, organism-based
Plasmodium falciparum [2] = assay: Growth inhibition of chloroquine-sensitive Plasmodium falciparum D10; format: functional, organism-based
[3] = target: T1, Histidine-rich protein PFHRP-II (Plasmodium falciparum, UniProt P05227); assay: Inhibition of beta-hematin formation in Plasmodium falciparum; format: functional
T1 sequence (P05227 whole entry): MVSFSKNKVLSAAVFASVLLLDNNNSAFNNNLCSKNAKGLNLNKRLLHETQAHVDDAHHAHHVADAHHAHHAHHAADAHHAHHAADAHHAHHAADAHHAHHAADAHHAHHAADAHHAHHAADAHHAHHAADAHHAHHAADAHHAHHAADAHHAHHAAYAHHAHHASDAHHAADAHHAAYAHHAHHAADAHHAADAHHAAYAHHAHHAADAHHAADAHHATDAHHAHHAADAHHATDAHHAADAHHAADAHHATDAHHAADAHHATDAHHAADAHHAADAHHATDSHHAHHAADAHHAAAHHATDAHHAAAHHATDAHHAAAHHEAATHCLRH

Plasmodium falciparum [4] = assay: Inhibition of hydrogen peroxide-mediated haem detoxification in Plasmodium falciparum; format: functional, organism-based

CCC1CN2CCC1CC2C(O)c1ccnc2c(CNC(=O)CCCCCCCCC(=O)Nc3cccc4c(C(O)C5CC6CCN5CC6CC)ccnc34)cccc12 (stereo unspecified)
IC50 (Plasmodium falciparum [1]): 20 nM | IC50 (Plasmodium falciparum [2]): 50 nM

CCN(CC)CCCC(C)Nc1cc(CCCCCCCCc2cc(NC(C)CCCN(CC)CC)c3ccccc3n2)nc2ccccc12 (stereo unspecified)
IC50 (Plasmodium falciparum [1]): 25 nM | IC50 [3]: 97000 nM | IC50 (Plasmodium falciparum [2]): 123 nM | IC50 (Plasmodium falciparum [4]): 81000 nM

CCN(CC)CCCC(C)Nc1cc(CCCCCCCCCCc2cc(NC(C)CCCN(CC)CC)c3ccccc3n2)nc2ccccc12 (stereo unspecified)
IC50 (Plasmodium falciparum [1]): 16 nM | IC50 [3]: 94000 nM | IC50 (Plasmodium falciparum [2]): 154 nM | IC50 (Plasmodium falciparum [4]): 80000 nM

CCN(CC)CCCC(C)Nc1cc(CCCCCCCCCCCCc2cc(NC(C)CCCN(CC)CC)c3ccccc3n2)nc2ccccc12 (stereo unspecified)
IC50 (Plasmodium falciparum [1]): 17 nM | IC50 [3]: 86000 nM | IC50 (Plasmodium falciparum [2]): 43 nM | IC50 (Plasmodium falciparum [4]): 37000 nM

OC(c1cc(C(F)(F)F)nc2c(C(F)(F)F)cccc12)C1CCCCN1 (stereo unspecified) [MEFLOQUINE]
IC50 (Plasmodium falciparum [2]): 90 nM | IC50 (Plasmodium falciparum [4]): 30000 nM

Reference: ChEMBL document CHEMBL1133897, “Synthesis, antimalarial activity and inhibition of haem detoxification of novel bisquinolines” (Bioorg Med Chem Lett, 2001)
